Data taken from patent publication US20110183842A1, “Triazole and Imidazole Compounds, Use Thereof and Agents Containing Them” (BASF SE, priority 2008, published 2011).

Test system: Phakopsora pachyrhizi
Test: Curative activity against soybean rust caused by Phakopsora pachyrhizi (greenhouse, soybean seedlings)
Format: in vivo
Settings: 300 ppm active compound, sprayed to runoff two days after inoculation of soybean seedlings, rated after a further 10 days; untreated plants 90% infected
Procedure: The active compounds were prepared separately or together as a stock solution with 25 mg of active compound, which was made up to 10 ml with a mixture of acetone and/or DMSO and the emulsifier Uniperol® EL (wetting agent with emulsifying and dispersant action based on ethoxylated alkylphenols) in the volume ratio solvent/emulsifier of from 99 to 1. Subsequently, it was made up to 100 ml with water. This stock solution was diluted with the described solvent/emulsifier/water mixture to the active compound concentration indicated below. Alternatively to this, the active compounds were used as a commercially available ready-to-use solution and diluted with water to the active compound concentration indicated.
Leaves of soybean seedlings grown in pots were inoculated with a spore suspension of soybean rust (Phakpsora pachyrhizi). The pots were then placed in a chamber of high atmospheric humidity (90 to 95%) and 23 to 27° C. for 24 hours. During this time, the spores germinated and the germ tubes penetrated into the leaf tissue. The infected plants were then cultivated further in a greenhouse at temperatures between 23 and 27° C. and 60 to 80% relative atmospheric humidity. After two days, the plants were sprayed to runoff point with the active compound solution described above at the active compound concentration indicated below. After the spray coating had dried on, the test plants were cultivated in a greenhouse at temperatures between 23 and 27° C. and 60 to 80% relative atmospheric humidity for a further 10 days. The extent of the rust fungus development on the leaves was then determined visually in % infection.

Row | Structure (SMILES) | extent of the rust fungus development on the leaves, determined visually in % infection [%]
1 | CC(C)(C)C(O)C(CCCCOc1ccccc1F)n1ncnc1S (stereo not drawn) [I.A1, 8-(2-fluorophenoxy)-4-(5-mercapto-[1,2,4]triazol-1-yl)-2,2-dimethyloctan-3-ol] | 15
2 | CC(C)(C)C(O)C(CCCCOc1cc(F)ccc1F)n1ncnc1S (stereo not drawn) [I.A4, 8-(2,5-difluorophenoxy)-4-(5-mercapto-[1,2,4]triazol-1-yl)-2,2-dimethyloctan-3-ol] | 15
3 | CC(C)(C)C(O)C(CCCCOc1c(F)cccc1Cl)n1ncnc1S (stereo not drawn) [I.A5, 8-(2-Chloro-6-fluorophenoxy)-4-(5-mercapto-[1,2,4]triazol-1-yl)-2,2-dimethyloctan-3-ol] | 15
